Values quoted from earlier work as cited in patent US20250367122A1, “PHARMACEUTICAL COMPOSITION CONTAINING 1-{2-[(3S,4R)-1-{[(3R,4R)-1-CYCLOPENTYL-3-FLUORO-4-(4-METHOXYPHENYL)PYRROLIDIN-3-YL]CARBONYL}-4-(METHOXYMETHYL)PYRROLIDIN-3-YL]-5-(TRIFLUOROMETHYL)PHENYL}PIPERIDINE-4-CARBOXYLIC ACID OR PHARMACEUTICALLY ACCEPTABLE SALT OR CO-CRYSTAL THEREOF” (MITSUBISHI TANABE PHARMA CORPORATION, priority 2022, published 2025).

Test system: melanocortin receptor (MCR)
Conditions: as described in Patent Document 1

MCR activation effect: excellent
Structure (SMILES): COC[C@H]1CN(C(=O)[C@]2(F)CN(C3CCCC3)C[C@H]2c2ccc(OC)cc2)C[C@@H]1c1ccc(C(F)(F)F)cc1N1CCC(C(=O)O)CC1 [Compound A, 1-{2-[(3S,4R)-1-{[(3R,4R)-1-cyclopentyl-3-fluoro-4-(4-methoxyphenyl)pyrrolidin-3-yl]carbonyl}-4-(methoxymethyl)pyrrolidin-3-yl]-5-(trifluoromethyl)phenyl}piperidine-4-carboxylic acid]
